Usually IC50 stands for the concentration that inhibits the measured activity by half. A high value points to weaker potency in that assay. The inhibition is the percentage by which the read-out fell short of the control.

The first series concerns NCI/ADR-RES. The series can be described thus: Potentiation of adriamycin-induced antiproliferative activity against human MCF7/ADR cells assessed as fold reduction in adriamycin IC50 at 5 uM measured after 48 hrs by MTT assay. In kind it is functional.
Details: not given
As for `C[C@H]1[C@H](OC(=O)CCC(=O)OCCCCn2cnc(Br)c2)O[C@@H]2O[C@@]3(C)CC[C@H]4[C@H](C)CC[C@@H]1[C@@]24OO3`, the “fold change (FC)” value was determined as 5.56.
Same read-out and setting: as for `C[C@@H]1CC[C@H]2[C@@H](C)C(OC(=O)c3c[nH]c4ccccc34)O[C@@H]3O[C@@]4(C)CC[C@@H]1[C@]32OO4` (some centres not stated), the figure is 95.85.
Still for that read-out and setting: the figure for `C[C@H]1[C@H](OC(=O)CCC(=O)OCCCCn2cnc(C#N)c2C#N)O[C@@H]2O[C@@]3(C)CC[C@H]4[C@H](C)CC[C@@H]1[C@@]24OO3` is 4.1.
As for `C[C@H]1[C@H](OC(=O)CCC(=O)OCCn2cnc(C#N)c2C#N)O[C@@H]2O[C@@]3(C)CC[C@H]4[C@H](C)CC[C@@H]1[C@@]24OO3`, the “fold change (FC)” value came to 5.41.
Same read-out and setting: as for `C[C@H]1[C@H](OC(=O)CCC(=O)OCCCn2cnc(Br)c2)O[C@@H]2O[C@@]3(C)CC[C@H]4[C@H](C)CC[C@@H]1[C@@]24OO3`, the figure is 5.6; as for `C[C@H]1[C@H](OC(=O)CCC(=O)OCCCCn2cnc([N+](=O)[O-])c2)O[C@@H]2O[C@@]3(C)CC[C@H]4[C@H](C)CC[C@@H]1[C@@]24OO3`, 26.06.

The subject of a further series is L02. Nature of the series: Cytotoxicity against human L02 cells measured after 48 hrs by MTT assay. In kind it is cell-based. To be noted: L02, 48 h. For orientation: Formazan colour is commonly taken as a measure of viable cells.
`C[C@H]1[C@H](OC(=O)CCC(=O)OCCCCn2cnc(Br)c2)O[C@@H]2O[C@@]3(C)CC[C@H]4[C@H](C)CC[C@@H]1[C@@]24OO3` yielded an IC50 of 41.3 µM.
Same read-out and setting: as for `C[C@@H]1CC[C@H]2[C@@H](C)C(OC(=O)c3c[nH]c4ccccc34)O[C@@H]3O[C@@]4(C)CC[C@@H]1[C@]32OO4` (some centres not stated), the figure is 42.6 µM.
Still for that read-out and setting: as for `C[C@H]1[C@H](OC(=O)CCC(=O)OCCCCn2cnc(C#N)c2C#N)O[C@@H]2O[C@@]3(C)CC[C@H]4[C@H](C)CC[C@@H]1[C@@]24OO3`, the figure is 42.9 µM; as for `C[C@H]1[C@H](OC(=O)CCC(=O)OCCn2cnc(C#N)c2C#N)O[C@@H]2O[C@@]3(C)CC[C@H]4[C@H](C)CC[C@@H]1[C@@]24OO3`, 49.1 µM.
`C[C@H]1[C@H](OC(=O)CCC(=O)OCCCn2cnc(Br)c2)O[C@@H]2O[C@@]3(C)CC[C@H]4[C@H](C)CC[C@@H]1[C@@]24OO3` showed an IC50 of over 100 µM.
The same measure, in the same setting: as for `C[C@H]1[C@H](OC(=O)CCC(=O)OCCCCn2cnc([N+](=O)[O-])c2)O[C@@H]2O[C@@]3(C)CC[C@H]4[C@H](C)CC[C@@H]1[C@@]24OO3`, the figure is 77.5 µM.

System in a further series: not listed separately
Nature of the series: Toxicity in human MCF7 cells assessed as inhibition of cell proliferation at 5 uM measured after 48 hrs by MTT assay. In kind it is cell-based.
Details: not given
Turning to `C[C@H]1[C@H](OC(=O)CCC(=O)OCCCCn2cnc(Br)c2)O[C@@H]2O[C@@]3(C)CC[C@H]4[C@H](C)CC[C@@H]1[C@@]24OO3`, the inhibition at 48 h, 5 µM was 8.95%.
Same read-out and setting: the figure for `C[C@@H]1CC[C@H]2[C@@H](C)C(OC(=O)c3c[nH]c4ccccc34)O[C@@H]3O[C@@]4(C)CC[C@@H]1[C@]32OO4` (some centres not stated) is 18.9%; for `C[C@H]1[C@H](OC(=O)CCC(=O)OCCCCn2cnc(C#N)c2C#N)O[C@@H]2O[C@@]3(C)CC[C@H]4[C@H](C)CC[C@@H]1[C@@]24OO3` it is 11.2%.
On to `C[C@H]1[C@H](OC(=O)CCC(=O)OCCn2cnc(C#N)c2C#N)O[C@@H]2O[C@@]3(C)CC[C@H]4[C@H](C)CC[C@@H]1[C@@]24OO3`, for which the inhibition at 48 h, 5 µM is 13.7%.
On the same count and under the same terms, the figure for `C[C@H]1[C@H](OC(=O)CCC(=O)OCCCn2cnc(Br)c2)O[C@@H]2O[C@@]3(C)CC[C@H]4[C@H](C)CC[C@@H]1[C@@]24OO3` is 23.2%.
Same read-out and setting: as for `C[C@H]1[C@H](OC(=O)CCC(=O)OCCCCn2cnc([N+](=O)[O-])c2)O[C@@H]2O[C@@]3(C)CC[C@H]4[C@H](C)CC[C@@H]1[C@@]24OO3`, the figure is 20.2%.

The next series deals with MDA-MB-231. Nature of the series: Antiproliferative activity against human MDA-MB-231 cells measured after 48 hrs by MTT assay. In kind it is functional, cell-based. The note with it: MDA-MB-231, 48 h.
The compound `C[C@H]1[C@H](OC(=O)CCC(=O)OCCCCn2cnc(Br)c2)O[C@@H]2O[C@@]3(C)CC[C@H]4[C@H](C)CC[C@@H]1[C@@]24OO3` came in with an IC50 of over 100 µM.
On the same count and under the same terms, the figure for `C[C@@H]1CC[C@H]2[C@@H](C)C(OC(=O)c3c[nH]c4ccccc34)O[C@@H]3O[C@@]4(C)CC[C@@H]1[C@]32OO4` (some centres not stated) is 58.9 µM; for `C[C@H]1[C@H](OC(=O)CCC(=O)OCCCCn2cnc(C#N)c2C#N)O[C@@H]2O[C@@]3(C)CC[C@H]4[C@H](C)CC[C@@H]1[C@@]24OO3` it is 50.8 µM.
The same measure, in the same setting: the figure for `C[C@H]1[C@H](OC(=O)CCC(=O)OCCn2cnc(C#N)c2C#N)O[C@@H]2O[C@@]3(C)CC[C@H]4[C@H](C)CC[C@@H]1[C@@]24OO3` is over 100 µM.
Take `C[C@H]1[C@H](OC(=O)CCC(=O)OCCCn2cnc(Br)c2)O[C@@H]2O[C@@]3(C)CC[C@H]4[C@H](C)CC[C@@H]1[C@@]24OO3`: the IC50 stood at 80.9 µM.
The same measure, in the same setting: the figure for `C[C@H]1[C@H](OC(=O)CCC(=O)OCCCCn2cnc([N+](=O)[O-])c2)O[C@@H]2O[C@@]3(C)CC[C@H]4[C@H](C)CC[C@@H]1[C@@]24OO3` is 57 µM.

In the next series the test system is A549. The series can be described thus: Antiproliferative activity against human A549 cells measured after 48 hrs by MTT assay. It is filed as functional, cell-based. To be noted: A549, 48 h.
The compound `C[C@H]1[C@H](OC(=O)CCC(=O)OCCCCn2cnc(Br)c2)O[C@@H]2O[C@@]3(C)CC[C@H]4[C@H](C)CC[C@@H]1[C@@]24OO3` returned an IC50 of 18.9 µM.
As for `C[C@@H]1CC[C@H]2[C@@H](C)C(OC(=O)c3c[nH]c4ccccc34)O[C@@H]3O[C@@]4(C)CC[C@@H]1[C@]32OO4` (some centres not stated), 12.9 µM corresponded to half-maximal inhibition (IC50).
On to `C[C@H]1[C@H](OC(=O)CCC(=O)OCCCCn2cnc(C#N)c2C#N)O[C@@H]2O[C@@]3(C)CC[C@H]4[C@H](C)CC[C@@H]1[C@@]24OO3`, for which the IC50 was determined as 17.9 µM.
Still for that read-out and setting: the figure for `C[C@H]1[C@H](OC(=O)CCC(=O)OCCn2cnc(C#N)c2C#N)O[C@@H]2O[C@@]3(C)CC[C@H]4[C@H](C)CC[C@@H]1[C@@]24OO3` is 12.4 µM; for `C[C@H]1[C@H](OC(=O)CCC(=O)OCCCn2cnc(Br)c2)O[C@@H]2O[C@@]3(C)CC[C@H]4[C@H](C)CC[C@@H]1[C@@]24OO3` it is 26 µM.
Still for that read-out and setting: as for `C[C@H]1[C@H](OC(=O)CCC(=O)OCCCCn2cnc([N+](=O)[O-])c2)O[C@@H]2O[C@@]3(C)CC[C@H]4[C@H](C)CC[C@@H]1[C@@]24OO3`, the figure is 25.8 µM.

In a further series the test system is MCF7. The series can be described thus: Antiproliferative activity against human MCF7 cells measured after 48 hrs by MTT assay. In kind it is functional, cell-based. To be noted: MCF7, 48 h.
In turn, `C[C@H]1[C@H](OC(=O)CCC(=O)OCCCCn2cnc(Br)c2)O[C@@H]2O[C@@]3(C)CC[C@H]4[C@H](C)CC[C@@H]1[C@@]24OO3` showed an IC50 of 11.6 µM.
Still for that read-out and setting: as for `C[C@@H]1CC[C@H]2[C@@H](C)C(OC(=O)c3c[nH]c4ccccc34)O[C@@H]3O[C@@]4(C)CC[C@@H]1[C@]32OO4` (some centres not stated), the figure is 6.78 µM.
In the case of `C[C@H]1[C@H](OC(=O)CCC(=O)OCCCCn2cnc(C#N)c2C#N)O[C@@H]2O[C@@]3(C)CC[C@H]4[C@H](C)CC[C@@H]1[C@@]24OO3`, inhibition was half-maximal at 15.2 µM (IC50).
Compound `C[C@H]1[C@H](OC(=O)CCC(=O)OCCn2cnc(C#N)c2C#N)O[C@@H]2O[C@@]3(C)CC[C@H]4[C@H](C)CC[C@@H]1[C@@]24OO3` yielded a half-inhibitory concentration (IC50) of 10.8 µM.
On to `C[C@H]1[C@H](OC(=O)CCC(=O)OCCCn2cnc(Br)c2)O[C@@H]2O[C@@]3(C)CC[C@H]4[C@H](C)CC[C@@H]1[C@@]24OO3`, for which the half-maximal inhibitory concentration (IC50) turned out to be 12.4 µM. This IC50 and that of the compound before are within 1.5-fold of each other.
Still for that read-out and setting: as for `C[C@H]1[C@H](OC(=O)CCC(=O)OCCCCn2cnc([N+](=O)[O-])c2)O[C@@H]2O[C@@]3(C)CC[C@H]4[C@H](C)CC[C@@H]1[C@@]24OO3`, the figure is 15.4 µM.

The next series deals with HepG2. Nature of the series: Antiproliferative activity against human HepG2 cells measured after 48 hrs by MTT assay. In kind it is functional, cell-based. To be noted: HepG2, 48 h.
Compound `C[C@H]1[C@H](OC(=O)CCC(=O)OCCCCn2cnc(Br)c2)O[C@@H]2O[C@@]3(C)CC[C@H]4[C@H](C)CC[C@@H]1[C@@]24OO3` displayed an IC50 of 35.9 µM.
Still for that read-out and setting: the figure for `C[C@@H]1CC[C@H]2[C@@H](C)C(OC(=O)c3c[nH]c4ccccc34)O[C@@H]3O[C@@]4(C)CC[C@@H]1[C@]32OO4` (some centres not stated) is 15.2 µM; for `C[C@H]1[C@H](OC(=O)CCC(=O)OCCCCn2cnc(C#N)c2C#N)O[C@@H]2O[C@@]3(C)CC[C@H]4[C@H](C)CC[C@@H]1[C@@]24OO3` it is 32.3 µM.
With `C[C@H]1[C@H](OC(=O)CCC(=O)OCCn2cnc(C#N)c2C#N)O[C@@H]2O[C@@]3(C)CC[C@H]4[C@H](C)CC[C@@H]1[C@@]24OO3`, half-maximal inhibition (IC50) was put at 25.6 µM.
On the same count and under the same terms, as for `C[C@H]1[C@H](OC(=O)CCC(=O)OCCCn2cnc(Br)c2)O[C@@H]2O[C@@]3(C)CC[C@H]4[C@H](C)CC[C@@H]1[C@@]24OO3`, the figure is 41.6 µM.
`C[C@H]1[C@H](OC(=O)CCC(=O)OCCCCn2cnc([N+](=O)[O-])c2)O[C@@H]2O[C@@]3(C)CC[C@H]4[C@H](C)CC[C@@H]1[C@@]24OO3` yielded an IC50 of 30.2 µM.

The values above are taken from ChEMBL document CHEMBL4316608, “Artemisinin-indole and artemisinin-imidazole hybrids: Synthesis, cytotoxic evaluation and reversal effects on multidrug resistance in MCF-7/ADR cells” (Bioorg Med Chem Lett, 2019).
